Like-named read-outs stand apart in the source and are kept apart here.
Columns and labels:
[1] = test system: subcutaneous LNCaP prostate cancer cell explants; test: Immunofluorescence analysis of 2-nitroimidazole induced protein adducts in mouse tumor explants; type: in vivo, nude mice; conditions: daily intravenous tail vein injection for three weeks
Protocol: Immunofluorescence analysis of 2-nitroimidazole induced protein adducts in mouse tumor explants. Nude mice with subcutaneous LNCaP prostate cancer cell explants were administered Hydroxyprobe-1, M3N or M3N-PEG-2NI for three weeks by daily intravenous tail vein injection with an additional injection 3 hours prior to euthanization. Tumors were removed from the euthanized mice by dissection and incubated in 30% sucrose/PBS overnight at 4° C. Excess sucrose was removed and the tissue was incubated in 30% sucrose/PBS:OCT (1:1) for 1 hour at room temperature. Afterward the tissue was frozen in 100% OCT. Frozen sections of […] were prepared and fixed in 4% PFA/PBS for 1 hour at room temperature. The sections were blocked overnight at 4° C. with 5% goat serum/PBS or at room temperature for 1 hour and then incubated with Hydroxyprobe-1 rabbit antiserum (1:200) overnight at 4° C. After three washes with PBS, the secondary antibody, mouse anti rabbit-FITC (1:1000) was added for 1 hour at room temperature. The sections were mounted using Vectashield and fluorescently imaged.

[2] = test system: orthotopic HT29 tumor implants; test: Orthotopic xenograft of HT29 human colorectal carcinoma in nude mice, systemic treatment; type: in vivo, nude (Nu/Nu) mice
Protocol: Orthotopic Xenograft implantation of HT29 human colorectal carcinoma cells into nude mice. HT29 cells were grown in culture in McCoy's medium until sub-confluent. A single cell suspension of HT29 was then prepared in HBSS and 1×10^7 cells were injected subcutaneously into the flanks of four male T-cell deficient nude (Nu/Nu) mice. Subcutaneous tumors were allowed to grow for 14 days before harvesting and preparation for orthotopic implantation. The mice were euthanized and the subcutaneous tumors were removed using sterile technique. The tumors were divided into 3×3 mm pieces that were kept in phosphate buffered saline (PBS) on ice. T-cell deficient nude (NU/NU) mice (6 male, 5 female) were anesthetized by injecting 0.5 to 1.0 mL of Avertin (20 mM) intraperitoneally in PBS. The abdomen was prepped with 70% ethanol three times and a small nick was made in the skin. The abdominal wall musculature was grasped, lifted, and entered with a single blade of scissors. The single blade of the scissors was used to push the contents of the abdominal cavity away and the incision was extended 2-3 cm. The cecum was identified by its blind ending pouch and exteriorized. The cecum was isolated from the rest of the mouse using pre-cut, sterile gauze and kept moist with warm PBS. A figure of 8 stitches was placed onto the cecum using a 7-0 sized suture and the cecal wall was slightly damaged at the site where the HT29 tumor piece is to be implanted using forceps. An HT29 tumor piece was positioned on the cecum under the stitch and the stitch was then tied. The cecum was returned to the abdominal cavity. Using staples, the mouse abdominal wall musculature and skin was closed and the mouse was allowed to recover from anesthesia.
Systemic treatment with M3N-PEG-2NI (compound 7d). A 40 mM stock solution of M3N-PEG-2NI was prepared by dissolving 0.14 g of M3N-PEG-2NI (MW=616.3 g/mol) in 5.7 mL of CPE. Each day of treatment, 4 T-cell deficient nude mice (2 male, 2 female) bearing orthotopic HT29 tumor implants received 0.1 ml of 20 mM M3N-PEG-2NI via I.V. or I.P. injections. The remaining 4 T-cell deficient nude mice (2 male, 2 female) received 0.1 mL of CPE (FIG. 7) Body weight of mice was monitored every week, until significant body weight change occurred. Then, body weight was measured every other day until day 24. All 8 mice were euthanized on day 24. The mice were dissected and their major organs collected. Special attention was taken in examination of livers since liver metastasis is common in orthotopic colon cancer models.

[3] = test system: LNCaP human prostate cancer cells; test: Western blot analysis of 2-nitroimidazole induced protein adducts in cell culture; type: cell-based; conditions: 80 μM, 6 hours normoxic then 6 hours hypoxic or normoxic
Protocol: Western blot analysis of 2-nitroimidazole induced protein adducts in LNCaP cell cultures. Exponentially growing LNCaP human prostate cancer cells were treated with DMSO, 80 μM M3N-PEG-2NI or Hypoxyprobe-1 in standard media for 6 hours under normoxic conditions and then under hypoxic or normoxic conditions for additional 6 hours. Afterward the media was aspirated, the cells washed and ice cold RIPA lysis buffer was added and the cells lysed on ice for 15 minutes. The samples were centrifuged and the lysate collected. Cellular proteins in the extracts were analyzed for the presence of protein adducts using standard western blotting technique. The primary antibody was PAb2627 polyclonal antibody (1:200) directed against Hydroxyprobe-1 protein adducts. The secondary antibody was Anti-Rabbit HRP conjugate (1:2000). Detection was by chemiluminescence

[4] = test system: Hep3B human hepatocellular carcinoma cells; test: Hypoxia targeting assay, 5-h exposure then 5 days growth, MTS; type: cell-based; conditions: for IC50: Homo sapiens
Protocol: Hypoxia targeting assay. Hep3B cells, plated in 96-well plates at a density of 3.0×10^3 cells/well, were incubated overnight and then treated with the test compounds for 5.0 hours at under hypoxic (1% O2) or normoxic (21% O2) conditions. Exposure of cells to hypoxia was carried out in a PROOX C-Chamber with O2 and CO2 levels modulated by a PROOX Model C21 Controller (BioSpherix). At the end of the treatment period, the wells were washed with phosphate buffered saline (PBS) and fresh compound-free media was added. The cells were cultured for an additional 5 days under normoxic conditions and then assayed for cell proliferation using the MTS assay.
Hypoxia targeting. Nitroimidazoles are converted to reactive compounds in hypoxic cells. Therefore it is of importance to compare the antiproliferative activities of the nitroimidazole conjugated compounds against Hep3B cells under normoxic and hypoxic conditions. In these experiments, Hep3B cells in culture were treated with each of the conjugated compounds 7c-d, 10c-d, or the parent compounds 3 or 8 for a 5.0-hour period under normoxic (21% O2) or hypoxic (1.0% O2) conditions. After treatment, the cells were returned to normal conditions and assayed for proliferation after 5 days of additional growth. […] The ratio between the IC50 values for each drug under normoxic versus hypoxic culture conditions was computed and used as a measure of the relative increase in potency.

[5] = 0.1 ml of 20 mM I.V. or I.P., three weeks, euthanized day 24, listed as M3N-PEG-2NI

SMILES: COc1ccc(C[C@H](C)[C@H](C)Cc2ccc(OC)c(OCCOCCOCCOCCn3ccnc3[N+](=O)[O-])c2)cc1OC (racemic) [Compound 7d, (±)-(2R,3S)-4-(3,4-Dimethoxyphenyl)-1-[4-methoxy-3-[12-(2-nitro-1H-imidazol-1-yl)-1,4,7,10-tetraoxadodecanyl]phenyl]-2,3-dimethylbutane]
- Protein adducts in tumor sections by immunofluorescence [1]: Protein-adducts were also found
- Mean Primary Tumor and Mass ([2]; 0.1 ml of 20 mM I.V. or I.P., three weeks, euthanized day 24, listed as M3N-PEG-2N): 300 ± 140 mg
- Mean Abdominal Cavity Tumor Mass [2, 5]: 75 ± 50 mg
- Mean Primary Tumor and Mass [2, 5]: 300 ± 140 mg
- Body Weight Increase ([2]; 0.1 ml of 20 mM I.V. or I.P., to day 24): 11.3%
- Mean Total Tumor Load ([2]; primary tumor plus total tumor mass, 0.1 ml of 20 mM I.V. or I.P., day 24, listed as M3N-PEG-2NI): 375 ± 150 mg
- Mice that developed liver metastasis ([2]; treated group of 4 mice, day 24): 1 of the 4
- Peritoneal tumors ([2]; treated group, mice 5 (female) and 7 (male)): no peritoneal tumors
- Peritoneal tumors ([2]; treated group, mice 6 (female) and 8 (male)): a single, small peritoneal tumor
- Tumor masses surrounding the kidneys and ovaries, weight each ([2]; treated group, mouse 5): < 100 mg
- Tumor surrounding the ovaries, weight ([2]; treated group, mouse 6): < 100 mg
- Protein adducts by western blot (PAb2627 antibody) [3]: showed evidence of protein adducts
- IC50 ([4]; hypoxic (1.0% O2), then 5 days normoxic growth, read-out: IC50 Hypoxic (H)): 53.2 ± 8 µM
- IC50 ([4]; normoxic (21% O2), then 5 days growth, read-out: IC50 Normoxic (N)): 60.8 ± 9.4 µM
- Ratio IC50 (N)/IC50 (H) ([4]; normoxic versus hypoxic): 1.14

From patent US9084779B2, “Conjugates of nitroimidazoles and their use as chemotherapeutic agents” (The Johns Hopkins University, priority 2011, dated 2015)
